Laboratory results reported in US20240300934A1, “COMPOUNDS FOR MODULATING MYCOBACTERIUM TUBERCULOSIS RESPONSE” (priority 2021, published 2024).

Columns and labels:
[1] = Mouse liver microsomal stability; type: in vitro ADME; details: mouse liver microsomes
Procedure: Assays examining mouse and human liver microsomal stability, kinetic aqueous solubility, mouse and human plasma protein binding and stability, and human cytochrome P450 inhibition characteristics of the compounds were run by BioDuro, Incorporated, using standard protocols as previously described (Wang et al, 2020). hERG inhibition assays were also performed by BioDuro, Incorporated.

[2] = test system: Vero cells; assay: Vero cell toxicity assay; type: cell-based, African green monkey; details: 72 h
Procedure: Vero cells (African green monkey kidney epithelial cells; ATCC CCL-81) were maintained in DMEM+10% FBS. For the cell toxicity assay, Vero cells were plated at 1×10^5 cells/well in a 96-well plate and incubated for 2-3 h to allow cells to settle. The test compound was dissolved in DMSO at a final concentration of 12 mg/ml. The test compound solution was then added to plated cells, resulting in final test concentrations of 50 to 0.78 μg/ml, with each concentration tested at least in duplicate. To evaluate […] cell viability, 20 μl of a 1:20 MTS:PMS reagent (Promega CellTiter 96 AQueous non-radioactive cell proliferation assay kit) was added to each well after 72 h of incubation at 37° C. and the plate then incubated for an additional 3 h. Absorbance at 490 nm was read on a Molecular Devices SpectraMax M5 microplate reader. The CC50 (the minimal amount of compound that inhibited Vero cell growth by 50%) was extrapolated by plotting absorbance at 490 nm versus the […].

[3] = test system: Mtb; details: PubChem AID 1259343, SID 340463129; cited from earlier work

CCSc1ncc(CN2CCN(c3nc4ccccc4o3)CC2)cn1 [Compound C6, 2-(4-((2-(ethylthio)pyrimidin-5-yl)methyl)piperazin-1-yl)benzo[d]oxazole]
MLM t1/2 [1]: 48.5 min
CC50 (minimum compound concentration to inhibit cell growth by 50%) [2]: > 50 µg/mL
growth inhibition call in previous cholesterol media screen [3]: positive for growth inhibition
